The source of these data is BindingDB's records for doi:10.1016/s0960-894x(01)00248-7 (Smithkline Beecham Pharmaceuticals, 2001).

Values joined by “and” are separate entries in the source; they are usually repeats but may differ in a detail not shown here. Equal entries are not always repeated.

A short description of the test: Agonistic activity of the compound against C-C chemokine receptor type 3 by displacing Eotaxin radioligand,using Esonophil chemotaxis assay.

The term IC50 denotes the midpoint of a concentration-inhibition curve. A lower IC50 goes with greater potency in that assay. For the molecule `COC(=O)[C@H](Cc1ccc([N+](=O)[O-])cc1)NC(=O)c1cccc2ccccc12` [(S)-2-[(Naphthalene-1-carbonyl)-amino]-3-(4-nitro-phenyl)-propionic acid methyl ester], the IC50 is 32 nM and 25 nM.
